# Literature values, collected in US20050163837A1, “Rosiglitazone formulations” (priority 2003, published 2005).
# Assays:
# [1] = system: animal models of type 2 diabetes
smiles,measurement,setting,value
"CN(CCOc1ccc(CC2SC(=O)NC2=O)cc1)c1ccccn1 (stereo not drawn) [Rosiglitazone, 5-[4-[2-(N-methyl-N-(2-pyridyl)amino)ethoxy]benzyl]thiazolidine-2,4-dione]",development of overt diabetes,mouse models of diabetes; mouse models,prevent the development of overt diabetes
same,blood glucose levels and hyperinsulinemia,mouse models of diabetes; several mouse models of diabetes,reduce blood glucose levels and hyperinsulinemia
same,induction of hypoglycemia or impaired glucose tolerance,[1],did not induce hypoglycemia or impaired glucose tolerance
